Experiment [1] has as its target KAT-5 (Homo sapiens (Human), UniProt Q92993). Nature of the experiment: KAT-5 biochemical inhibition assay (SAMDI mass spectrometry). A digest of the protocol:
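KAT-5 at 9 nM final was preincubated with serially diluted compound (2% DMSO) in 50 mM Tris pH 8.0 with 1 mM DTT. Reaction ran with 1 μM peptide substrate and 0.5 μM acetyl-CoA for 90 min at 25° C, was quenched with 0.5% formic acid, and was read by SAMDI-TOF mass spectrometry.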

The target in experiment [2] is KAT-6A (Homo sapiens (Human), UniProt Q92794). Nature of the experiment: KAT-6A biochemical inhibition assay (SAMDI mass spectrometry). An outline of the steps:
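Enzyme (12.5 nM final) pre-incubated with serially diluted compounds (2% DMSO final) in 50 mM Tris pH 8.0 with Tween20, gelatin and 1 mM DTT. Reaction started with 1 μM peptide substrate and 1 μM acetyl-CoA, run 90 min at 25 °C, quenched with 0.5% formic acid, read by SAMDI-TOF mass spectrometry; IC50 derived.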

The target in experiment [3] is KAT-7 (Homo sapiens (Human), UniProt O95251). Nature of the experiment: KAT-7 biochemical inhibition assay (SAMDI mass spectrometry). An outline of the steps: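 KAT-7 (6 nM) was pre-incubated with serially diluted compound (2% DMSO) in Tris pH 8.0 with DTT. Reaction with 1 μM peptide and 2 μM acetyl-CoA ran 120 min at 25 °C and was stopped with 0.5% formic acid. Acetylation was read by SAMDI-TOF mass spectrometry to give IC50.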

Experiment [4] concerns the target KAT-8 (Homo sapiens (Human), UniProt Q9H7Z6). Nature of the experiment: KAT-8 biochemical inhibition assay (SAMDI mass spectrometry). A digest of the protocol: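 Compounds in 2% DMSO pre-incubated with 12.5 nM enzyme in 50 mM Tris pH 8.0 with Tween20, gelatin and 1 mM DTT. Then 1 μM peptide and 5 μM acetyl-CoA were added, 90 min at 25 °C; formic acid stop and SAMDI-TOF mass spectrometry for IC50.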

SMILES strings stand for the structures. A value given as a limit tells only on which side of the number the result lay.

Consider 33 compounds from patent publication US11685732B2, “MYST family histone acetyltransferase inhibitors” (Epizyme, Inc., priority 2017, dated 2023).

Sequence of KAT-5 (Q92993 other isoform, or with tags, fused parts or gaps): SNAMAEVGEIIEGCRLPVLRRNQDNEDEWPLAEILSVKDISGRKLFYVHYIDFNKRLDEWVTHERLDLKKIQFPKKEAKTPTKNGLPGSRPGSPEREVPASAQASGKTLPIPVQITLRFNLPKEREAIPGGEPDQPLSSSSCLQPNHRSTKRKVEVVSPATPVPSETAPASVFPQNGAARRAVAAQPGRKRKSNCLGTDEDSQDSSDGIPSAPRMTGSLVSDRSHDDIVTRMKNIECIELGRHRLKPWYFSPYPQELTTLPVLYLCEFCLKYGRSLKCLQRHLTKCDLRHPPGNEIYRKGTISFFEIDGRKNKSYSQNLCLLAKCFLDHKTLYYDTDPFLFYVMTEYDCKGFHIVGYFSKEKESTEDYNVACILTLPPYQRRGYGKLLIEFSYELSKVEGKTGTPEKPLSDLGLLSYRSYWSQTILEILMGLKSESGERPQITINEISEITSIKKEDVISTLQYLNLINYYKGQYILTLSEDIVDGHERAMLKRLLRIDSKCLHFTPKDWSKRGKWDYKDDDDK
Sequence of KAT-6A (Q92794 other isoform, or with tags, fused parts or gaps): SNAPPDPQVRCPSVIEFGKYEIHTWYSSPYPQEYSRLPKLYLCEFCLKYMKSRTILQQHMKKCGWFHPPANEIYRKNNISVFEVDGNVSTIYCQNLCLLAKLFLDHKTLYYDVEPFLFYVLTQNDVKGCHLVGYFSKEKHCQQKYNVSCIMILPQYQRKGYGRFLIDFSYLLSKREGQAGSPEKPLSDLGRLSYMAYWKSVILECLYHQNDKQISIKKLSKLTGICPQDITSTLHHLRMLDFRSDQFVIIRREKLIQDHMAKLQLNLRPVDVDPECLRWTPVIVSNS
Sequence of KAT-8 (Q9H7Z6 other isoform, or with tags, fused parts or gaps): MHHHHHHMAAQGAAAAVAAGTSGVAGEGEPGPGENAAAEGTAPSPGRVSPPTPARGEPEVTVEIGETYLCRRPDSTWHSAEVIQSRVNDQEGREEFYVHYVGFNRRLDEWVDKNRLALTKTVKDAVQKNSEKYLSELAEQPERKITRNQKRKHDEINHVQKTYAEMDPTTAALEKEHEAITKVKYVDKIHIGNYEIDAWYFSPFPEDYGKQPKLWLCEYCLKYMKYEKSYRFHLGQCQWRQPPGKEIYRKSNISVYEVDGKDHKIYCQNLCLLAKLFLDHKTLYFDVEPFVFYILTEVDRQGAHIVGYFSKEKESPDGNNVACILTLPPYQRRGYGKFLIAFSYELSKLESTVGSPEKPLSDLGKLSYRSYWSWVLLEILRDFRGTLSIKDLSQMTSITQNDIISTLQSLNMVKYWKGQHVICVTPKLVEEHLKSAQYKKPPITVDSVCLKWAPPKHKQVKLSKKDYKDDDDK
Sequence of KAT-7 (O95251 other isoform, or with tags, fused parts or gaps): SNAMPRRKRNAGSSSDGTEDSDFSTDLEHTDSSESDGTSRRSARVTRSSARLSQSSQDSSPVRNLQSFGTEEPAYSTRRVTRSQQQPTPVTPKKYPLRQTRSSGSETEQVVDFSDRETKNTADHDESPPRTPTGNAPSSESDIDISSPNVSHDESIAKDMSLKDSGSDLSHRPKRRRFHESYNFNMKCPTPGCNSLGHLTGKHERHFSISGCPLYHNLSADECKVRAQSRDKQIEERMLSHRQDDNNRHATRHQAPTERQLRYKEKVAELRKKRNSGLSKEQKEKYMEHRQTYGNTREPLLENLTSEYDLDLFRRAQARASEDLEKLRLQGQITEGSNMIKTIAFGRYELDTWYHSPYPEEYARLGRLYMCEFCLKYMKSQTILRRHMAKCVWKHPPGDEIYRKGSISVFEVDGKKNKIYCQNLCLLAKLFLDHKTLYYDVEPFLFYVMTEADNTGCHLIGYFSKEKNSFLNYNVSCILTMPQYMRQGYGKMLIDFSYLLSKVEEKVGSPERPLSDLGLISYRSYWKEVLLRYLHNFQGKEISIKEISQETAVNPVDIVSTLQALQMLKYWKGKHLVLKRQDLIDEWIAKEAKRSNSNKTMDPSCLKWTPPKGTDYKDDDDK

Turning to `Cn1cnc(-c2cc(Cl)c(F)c(C(=O)NNS(=O)(=O)C[C@H]3CC[C@@H](NS(C)(=O)=O)CC3)c2)c1` [Compound I-248], the IC50 is less than 10 µM in experiment [1], less than 10 µM in experiment [2], less than 10 µM in experiment [3] and 10 to 50 µM in experiment [4].

As for `Cn1cnc(-c2cc(Cl)c(F)c(C(=O)NNS(=O)(=O)C[C@H]3CC[C@H](NC(=O)Cc4ccccn4)CC3)c2)c1` [Compound I-249], the IC50 in experiment [1] was less than 10 µM; in experiment [2], less than 10 µM; in experiment [3] it was less than 10 µM; in experiment [4], 10 to 50 µM.

`Cn1cnc(-c2cc(Cl)c(F)c(C(=O)NNS(=O)(=O)CC3CCC4CCC3N4C(=O)OC(C)(C)C)c2)c1` (stereo not drawn) [Compound I-250]: the IC50 is less than 10 µM in experiment [1], 10 to 50 µM in experiment [2], less than 10 µM in experiment [3] and 10 to 50 µM in experiment [4].

In the case of `Cn1cnc(-c2cc(Cl)c(F)c(C(=O)NNS(=O)(=O)CC3CCC4CCC3N4)c2)c1` (stereo not drawn) [Compound I-251], the IC50 in experiment [1] was 10 to 50 µM; in experiment [2], 10 to 50 µM; in experiment [3], less than 10 µM; in experiment [4] it was 10 to 50 µM.

In the case of `Cn1cnc(-c2cc(Cl)c(F)c(C(=O)NNS(=O)(=O)C[C@H]3CCC[C@@H](NC(=O)OC(C)(C)C)C3)c2)c1` [Compound I-252], the IC50 in experiment [1] is less than 10 µM; in experiment [2], less than 10 µM; in experiment [3], less than 10 µM; in experiment [4], 10 to 50 µM.

For `Cn1cnc(-c2cc(Cl)c(F)c(C(=O)NNS(=O)(=O)C[C@H]3CCC[C@@H](N)C3)c2)c1` [Compound I-253], the IC50 in experiment [1] was 10 to 50 µM; in experiment [2], 10 to 50 µM; in experiment [3] it was less than 10 µM; in experiment [4] it was 10 to 50 µM.

Consider `Cn1cnc(-c2cc(Cl)c(F)c(C(=O)NNS(=O)(=O)C[C@H]3CC[C@H](NC(=O)Cc4ccncc4)CC3)c2)c1` [Compound I-254], for which the IC50 in experiment [1] was less than 10 µM; in experiment [2], less than 10 µM; in experiment [3], less than 10 µM; in experiment [4], 10 to 50 µM.

In the case of `CCC1CC(CS(=O)(=O)NNC(=O)c2cc(-c3cn(C)cn3)cc(Cl)c2F)CC1=O` (stereo not drawn) [Compound I-255], the IC50 in experiment [1] is 10 to 50 µM; in experiment [2] it was 10 to 50 µM; in experiment [3], less than 10 µM; in experiment [4], 10 to 50 µM.

With `CC(C1CCCCC1)S(=O)(=O)NNC(=O)c1cc(-c2cn(C)cn2)cc(Cl)c1F` (stereo not drawn) [Compound I-256], the IC50 is less than 10 µM in experiment [1], less than 10 µM in experiment [2], less than 10 µM in experiment [3] and 10 to 50 µM in experiment [4].

For `Cn1cnc(-c2cc(Cl)c(F)c(C(=O)NNS(=O)(=O)c3cncs3)c2)c1` [Compound I-257], the IC50 in experiment [1], in experiment [2], in experiment [3] and in experiment [4] was 10 to 50 µM throughout.

On to `Cn1cnc(-c2cc(Cl)c(F)c(C(=O)NNS(=O)(=O)C[C@H]3CC[C@H](NC(=O)Cc4cccnc4)CC3)c2)c1` [Compound I-258], for which the IC50 was less than 10 µM in experiment [1], less than 10 µM in experiment [2], less than 10 µM in experiment [3] and 10 to 50 µM in experiment [4].

Take `CCNC(=O)N1[C@H]2CC[C@@H](CS(=O)(=O)NNC(=O)c3cc(-c4cn(C)cn4)cc(Cl)c3F)[C@@H]1CC2` [Compound I-260]: the half-inhibitory concentration (IC50) is less than 10 µM in experiment [1], less than 10 µM in experiment [2], less than 10 µM in experiment [3] and 10 to 50 µM in experiment [4].

For `Cn1cnc(-c2cc(Cl)c(F)c(C(=O)NNS(=O)(=O)C[C@H]3CC[C@H]4CC[C@@H]3N4)c2)c1` [Compound I-261], the IC50 in experiment [1], in experiment [2], in experiment [3] and in experiment [4] was 10 to 50 µM each time.

`Cn1cnc(-c2cc(Cl)c(F)c(C(=O)NNS(=O)(=O)CC3CCC(F)(F)CC3)c2)c1` [Compound I-262]: the IC50 in experiment [1] is less than 10 µM; in experiment [2], less than 10 µM; in experiment [3], less than 10 µM; in experiment [4] it was 10 to 50 µM.

Turning to `Cn1cnc(-c2cc(Cl)c(F)c(C(=O)NNS(=O)(=O)CC3CCCc4ccccc43)c2)c1` (stereo not drawn) [Compound I-264], the half-maximal inhibitory concentration (IC50) in experiment [1] is less than 10 µM; in experiment [2], less than 10 µM; in experiment [3] it was less than 10 µM; in experiment [4], 10 to 50 µM.

`CCNC(=O)N1[C@H]2CC[C@H](CS(=O)(=O)NNC(=O)c3cc(-c4cn(C)cn4)cc(Cl)c3F)[C@@H]1CC2` [Compound I-265]: the IC50 in experiment [1] was less than 10 µM; in experiment [2], less than 10 µM; in experiment [3], less than 10 µM; in experiment [4], 10 to 50 µM.

For the compound `CCNC(=O)N[C@@H]1CCC[C@H](CS(=O)(=O)NNC(=O)c2cc(-c3cn(C)cn3)cc(Cl)c2F)C1` [Compound I-266], the IC50 in experiment [1] is less than 10 µM; in experiment [2] it was less than 10 µM; in experiment [3], less than 10 µM; in experiment [4], 10 to 50 µM.

In the case of `C[C@@H]1CN(C(=O)OC(C)(C)C)C[C@H]1CS(=O)(=O)NNC(=O)c1cc(-c2cn(C)cn2)cc(Cl)c1F` [Compound I-267], the half-maximal inhibitory concentration (IC50) is less than 10 µM in experiment [1], 10 to 50 µM in experiment [2], less than 10 µM in experiment [3] and 10 to 50 µM in experiment [4].

Regarding `CNC1CCCC(CS(=O)(=O)NNC(=O)c2cc(-c3cn(C)cn3)cc(Cl)c2F)C1` (stereo not drawn) [Compound I-280], the IC50 is 10 to 50 µM in experiment [1], 10 to 50 µM in experiment [2], less than 10 µM in experiment [3] and 10 to 50 µM in experiment [4].

For `CN1CCN(C2CCCC(CS(=O)(=O)NNC(=O)c3cc(-c4cn(C)cn4)cc(Cl)c3F)C2)C1=O` (stereo not drawn) [Compound I-281], the IC50 in experiment [1] is less than 10 µM; in experiment [2], less than 10 µM; in experiment [3], less than 10 µM; in experiment [4], 10 to 50 µM.

`Cn1cnc(-c2cc(Cl)c(F)c(C(=O)NNS(=O)(=O)Cc3cccnc3)c2)c1` [Compound I-282]: the concentration for half-maximal inhibition (IC50) in experiment [1] was less than 10 µM; in experiment [2], 10 to 50 µM; in experiment [3] it was less than 10 µM; in experiment [4], 10 to 50 µM.

For `CC(=O)N1C[C@H](CS(=O)(=O)NNC(=O)c2cc(-c3cn(C)cn3)cc(Cl)c2F)[C@@H](C)C1` [Compound I-283], the IC50 is 10 to 50 µM in experiment [1], 10 to 50 µM in experiment [2], less than 10 µM in experiment [3] and 10 to 50 µM in experiment [4].

As for `Cn1cnc(-c2cc(Cl)c(F)c(C(=O)NNS(=O)(=O)c3nccn3C)c2)c1` [Compound I-284], the IC50 is 10 to 50 µM in experiment [1], less than 10 µM in experiment [2], less than 10 µM in experiment [3] and 10 to 50 µM in experiment [4].

Take `Cn1cnc(-c2cc(Cl)c(F)c(C(=O)NNS(=O)(=O)CC3CCC(NC(=O)OC(C)(C)C)C3)c2)c1` (stereo not drawn) [Compound I-285]: the half-maximal inhibitory concentration (IC50) in experiment [1] was less than 10 µM; in experiment [2] it was less than 10 µM; in experiment [3] it was less than 10 µM; in experiment [4], 10 to 50 µM.

In the case of `CCNC(=O)NC1CCC(CS(=O)(=O)NNC(=O)c2cc(-c3cn(C)cn3)cc(Cl)c2F)C1` (stereo not drawn) [Compound I-286], the IC50 in experiment [1] is less than 10 µM; in experiment [2], less than 10 µM; in experiment [3], less than 10 µM; in experiment [4], 10 to 50 µM.

Consider `CCNC(=O)N[C@H]1CCC[C@@H](CS(=O)(=O)NNC(=O)c2cc(-c3cn(C)cn3)cc(Cl)c2F)C1` [Compound I-287], for which the IC50 is less than 10 µM in experiment [1], less than 10 µM in experiment [2], less than 10 µM in experiment [3] and 10 to 50 µM in experiment [4].

As for `Cn1cnc(-c2cc(Cl)c(F)c(C(=O)NNS(=O)(=O)C[C@H]3CCC[C@H](OCc4ccccc4)C3)c2)c1` [Compound I-288], the IC50 is less than 10 µM in experiment [1], less than 10 µM in experiment [2], less than 10 µM in experiment [3] and 10 to 50 µM in experiment [4].

For the compound `Cn1cnc(-c2cc(Cl)c(F)c(C(=O)NNS(=O)(=O)CC3CC4CC4C3)c2)c1` (stereo not drawn) [Compound I-289], the IC50 in experiment [1] was less than 10 µM; in experiment [2], less than 10 µM; in experiment [3], less than 10 µM; in experiment [4], 10 to 50 µM.

With `Cn1cnc(-c2cc(Cl)c(F)c(C(=O)NNS(=O)(=O)C[C@H]3CCC[C@@H](OCc4ccccc4)C3)c2)c1` [Compound I-290], the half-maximal inhibitory concentration (IC50) in experiment [1] is less than 10 µM; in experiment [2], 10 to 50 µM; in experiment [3], less than 10 µM; in experiment [4], 10 to 50 µM.

Take `CCN(C)C(=O)NC1CCC(CS(=O)(=O)NNC(=O)c2cc(-c3cn(C)cn3)cc(Cl)c2F)C1` (stereo not drawn) [Compound I-291]: the IC50 in experiment [1] is less than 10 µM; in experiment [2], 10 to 50 µM; in experiment [3], less than 10 µM; in experiment [4], 10 to 50 µM.

Consider `CN(C)C(=O)N(C)C1CCCC(CS(=O)(=O)NNC(=O)c2cc(-c3cn(C)cn3)cc(Cl)c2F)C1` (stereo not drawn) [Compound I-292], for which the IC50 in experiment [1] was less than 10 µM; in experiment [2], less than 10 µM; in experiment [3], less than 10 µM; in experiment [4], 10 to 50 µM.

For the compound `CCNC(=O)N(C)C1CCCC(CS(=O)(=O)NNC(=O)c2cc(-c3cn(C)cn3)cc(Cl)c2F)C1` (stereo not drawn) [Compound I-293], the concentration for half-maximal inhibition (IC50) in experiment [1] was less than 10 µM; in experiment [2] it was less than 10 µM; in experiment [3], less than 10 µM; in experiment [4], 10 to 50 µM.

Turning to `CCC(=O)N(C)C1CCCC(CS(=O)(=O)NNC(=O)c2cc(-c3cn(C)cn3)cc(Cl)c2F)C1` (stereo not drawn) [Compound I-294], the IC50 in experiment [1] was less than 10 µM; in experiment [2] it was less than 10 µM; in experiment [3], less than 10 µM; in experiment [4] it was 10 to 50 µM.
